Results as given in patent US11787788B2, “Benzimidazole derivatives, and pharmaceutical compositions and methods of use thereof” (CAPELLA THERAPEUTICS, INC., priority 2014, dated 2023).

Key:
Format in all cases: cell-based
[1] = tested on: H1975 human NSCLC adenocarcinoma cells; experiment: Cell proliferation assay, drug-resistant mutant ERBB1 (T790M/L858R); details: for Selectivity Ratio (Wild-type ERBB1/Mutant ERBB1) HEKn/H1975: ratio of GI50 HEKn/H1975; for GI50: Homo sapiens, NCI-H1975, 72 hrs treatment, class symbols; for Selectivity Ratio (Wild-type ERBB1/Mutant ERBB1) A431/H1975: ratio of GI50 A431/H1975
Experimental: (§1) The biological activity of a test compound was determined using cell proliferation assays. The activity against wild-type ERBB1 was determined using A431 human epidermoid carcinoma cells (ATCC) and human epidermal keratinocytes, neonatal, or HEKn cells (ATCC).
(§2) A431 cells were grown in DMEM (Invitrogen) supplemented with 10% FBS (Lonza), 1% penicillin-streptomycin, and 2 mM glutamine (Invitrogen). HEKn cells were grown in EPILIFE® (Invitrogen) supplemented with HKGS (Invitrogen). HCC827 and H1975 were cultured in RPMI1640 supplemented with 10% FBS (Lonza), 1% penicillin-streptomycin, and 2 mM glutamine (Invitrogen). Cells were maintained and propagated at 37° C. and 5% CO2 in a humidified cell culture incubator. Aliquots of cells from early passages were preserved for liquid nitrogen storage. Frozen vials of cells were thawed at 37° C. water bath. Cells were spun to remove freezing medium. The newly revived frozen cells were adapted in culture for 10 days before used for compound testing. Cells used in the assay were less than 20 subculture passages or 3 months in culture.
(§3) The test compounds were dissolved in dimethylsulfoxide (DMSO) and stored at −20° C. before testing. […] The cells were placed in a culture incubator overnight. Next day, test compounds in DMSO were added to the cells and placed back in the culture incubator for 72 hrs. In the meantime, the cell numbers at time zero of the compound treatment (T0) was measured by ENERCOUNT® (Codex BioSolutions). At the end of the compound treatment, the cell numbers were again measured by EnerCount as T72 values. The untreated controls (Ctrl) were cell numbers recorded from the 0.1% DMSO treatment. The percent growth inhibition by the test compound was calculated by the formula: (1−(T72−T0)/(Ctrl−T0))×100.
(§4) The results are summarized in Tables 1 and 2, wherein A represents a value no greater than 500 nM, B represents a value greater than 500 nM but no greater than 1 μM, C represents a value greater than 1 μM but no greater than 5 μM, and D represents a value greater than 5 μM; and wherein A′ represents a ratio of greater than 10, B′ represents a ratio of no greater than 10 but no less than 5, C′ represents a ratio of no greater than 5 but no less than 2, and D′ represents a ratio of no greater than 2.

[2] = tested on: HCC827 human NSCLC adenocarcinoma cells; experiment: Cell proliferation assay, mutant ERBB1 (exon 19 deletion); details: for GI50: Homo sapiens, HCC827, 72 hrs treatment; for Selectivity Ratio (Wild-type ERBB1/Mutant ERBB1) HEKn/HCC827: ratio of GI50 HEKn/HCC827; for Selectivity Ratio (Wild-type ERBB1/Mutant ERBB1) A431/HCC827: ratio of GI50 A431/HCC827
Experimental: as §1, §2, §3, §4

[3] = tested on: human epidermal keratinocytes, neonatal, or HEKn cells; experiment: Cell proliferation assay, wild-type ERBB1; details: Keratinocyte, 72 hrs treatment
Experimental: as §1, §2, §3, §4

[4] = tested on: A431 human epidermoid carcinoma cells; experiment: Cell proliferation assay, wild-type ERBB1; details: A-431, 72 hrs treatment, class symbols
Experimental: as §1, §2, §3, §4

SMILES | Selectivity Ratio (Wild-type ERBB1/Mutant ERBB1) HEKn/H1975 [1] | GI50 ([2]; numeric values, unit inferred) | Selectivity Ratio (Wild-type ERBB1/Mutant ERBB1) HEKn/HCC827 [2] | GI50 ([3]; numeric values, unit inferred) | GI50 [1] | Selectivity Ratio (Wild-type ERBB1/Mutant ERBB1) A431/H1975 [1] | GI50 ([2]; class symbols) | Selectivity Ratio (Wild-type ERBB1/Mutant ERBB1) A431/HCC827 [2] | GI50 [4] | GI50 ([3]; class symbols)
C=CC(=O)Nc1cccc(Nc2nc(Nc3ccc(N4CCN(C(C)=O)CC4)cc3OC)ncc2C(F)(F)F)c1 [CO-1686, reference compound] | A′ (A′ represents a ratio of greater than 10) | 32 nM | A′ (A′ represents a ratio of greater than 10) | 2500 nM |  |  |  |  |  | 
C=CC(=O)N1CCCC[C@@H](n2c(NC(=O)c3ccnc(C)c3)nc3cccc(OC4CCN(CC)CC4)c32)C1 [Compound A1, (R)—N-(1-(1-Acryloylazepan-3-yl)-7-((1-ethylpiperidin-4-yl)oxy)-1H-benzo[d]imidazol-2-yl)-2-methylisonicotinamide] | A′ (A′ represents a ratio of greater than 10) |  | A′ (A′ represents a ratio of greater than 10) |  | < 500 nM | A′ (A′ represents a ratio of greater than 10) | < 500 nM | A′ (A′ represents a ratio of greater than 10) | < 500 nM | 1000 to 5000 nM
C=CC(=O)N1CCCC[C@@H](n2c(NC(=O)c3ccnc(C)c3)nc3cccc(OC4CCN(C(C)=O)CC4)c32)C1 [Compound A2, (R)—N-(7-((1-acetylpiperidin-4-yl)oxy)-1-(1-acryloylazepan-3-yl)-1H-benzo[d]imidazol-2-yl)-2-methylisonicotinamide] | A′ (A′ represents a ratio of greater than 10) |  | A′ (A′ represents a ratio of greater than 10) |  | < 500 nM | B′ (B′ represents a ratio of no greater than 10 but no less than 5) | < 500 nM | A′ (A′ represents a ratio of greater than 10) | 500 to 1000 nM | > 5000 nM
C=CC(=O)N1CCC(Oc2cccc3nc(NC(=O)c4ccnc(C)c4)n([C@@H]4CCCCN(C(=O)C=C)C4)c23)CC1 [Compound A3, (R)—N-(1-(1-acryloylazepan-3-yl)-7-((1-acryloylpiperidin-4-yl)oxy)-1H-benzo[d]imidazol-2-yl)-2-methylisonicotinamide] | A′ (A′ represents a ratio of greater than 10) |  | A′ (A′ represents a ratio of greater than 10) |  | < 500 nM | B′ (B′ represents a ratio of no greater than 10 but no less than 5) | < 500 nM | A′ (A′ represents a ratio of greater than 10) | > 5000 nM | 1000 to 5000 nM
C=CC(=O)N1CCCC[C@@H](n2c(NC(=O)c3ccnc(C)c3)nc3cc(OC(F)(F)F)cc(Cl)c32)C1 [Compound A4, (R)—N-(1-(1-Acryloylazepan-3-yl)-7-chloro-5-(trifluoromethoxy)-1H-benzo[d]imidazol-2-yl)-2-methylisonicotinamide] | C′ (C′ represents a ratio of no greater than 5 but no less than 2) |  | A′ (A′ represents a ratio of greater than 10) |  | < 500 nM | C′ (C′ represents a ratio of no greater than 5 but no less than 2) | < 500 nM | A′ (A′ represents a ratio of greater than 10) | 1000 to 5000 nM | 1000 to 5000 nM
Cc1cc(C(=O)Nc2nc3cc(OC(F)(F)F)cc(Cl)c3n2[C@@H]2CCCCN(C(=O)/C=C/CN(C)C)C2)ccn1 [Compound A5, (R,E)-N-(7-Chloro-1-(1-(4-(dimethylamino)but-2-enoyl)azepan-3-yl)-5-(trifluoromethoxy)-1H-benzo[d]imidazol-2-yl)-2-methylisonicotinamide] | A′ (A′ represents a ratio of greater than 10) |  | A′ (A′ represents a ratio of greater than 10) |  | < 500 nM | C′ (C′ represents a ratio of no greater than 5 but no less than 2) | < 500 nM | A′ (A′ represents a ratio of greater than 10) | 1000 to 5000 nM | 1000 to 5000 nM
